Legend:
[1] = test system: Wnt/β-catenin; assay: β-catenin stabilization (Wnt pathway activation) in RKO cells (Western blot); assay type: cell-based; set-up: concentration at which β-catenin was stabilized: unit not given here; conditions: for β-Catenin activity: 16 hours, Western blot
Description: (§1) Primary Screen in RKO cells for compounds having typical CKIα inhibitory activity (β-catenin and p53 stabilization and histone H2AX phosphorylation; see Elyada et al, Nature 2011 Feb. 17; 470(7334):409-13; Pribluda et al, Cancer Cell 2013 Aug. 12; 24(2):242-56). RKO colorectal cells were incubated with 10 μM of each of the compounds for 16 hours at 37° C. Cells were washed with PBS and cell pellets were incubated with ice cold protein lysis buffer containing protease inhibitor cocktail (1/200; Calbiochem) and phosphatase inhibitors (20 mM p-nitrophenyl phosphate (PNPP), 20 mM β-glycerophosphate and 300 nM okadaic acid). Western blot analysis was performed by means of standard techniques. Blots were incubated with antibodies detecting β-catenin (1/2,500; BD Transduction), p53 (DO-1&1801 hybridoma mix; dilution of 1:20 of supernatants from each), CKIα (C-19; 1/1,000; Santa Cruz Biotechnology) and phospho-histoneH2AX (S139; 1/1,000; Millipore). Secondary antibodies were HRP-linked goat anti-mouse, goat anti-rabbit and rabbit anti-goat antibodies (all 1/10,000; Jackson). Blots were developed using ECL (GE Healthcare).
(§2) Active compounds were further analyzed in a dose-response experiment (FIGS. 1A and 1B). Similar to the primary screen, RKO cells were incubated with descending concentrations of each of the active compounds for 16 hours at 37° C. Cell extract isolation and Western Blot analysis were similar to the primary screen.
(§3) Table 1 provides quantified information for compounds of the invention in activation of p53 and DNA damage response (DDR) and β-catenin stabilization as an indicator of Wnt pathway activation. p53 activation was determined according to the degree of protein stabilization in several Western blot assays (Western blot examples are shown in FIGS. 1A and 1B). […] In contrast, A35 started stabilizing p53 at […], with maximal stabilization at […] (FIG. 1A, upper right panel) and thus received an average value of +++ for p53 activation.

[2] = test system: p53, DNA damage response (γH2AX); assay: p53 and DNA damage response activation in RKO cells (Western blot, primary screen and dose response); assay type: cell-based; conditions: for DDR & p53 activity: 16 hours, Western blot, average value
Description: as §1, §2, §3

[3] = test system: IRAK1/4; conditions: 10 μM; cited from earlier work
[4] = target: T1, IRAK1 (Homo sapiens, UniProt P51617); assay: Kd measurements for the interaction with IRAK1; assay type: binding
T1 construct: RKO cells were incubated for 16 hours at 37° C. with the indicated concentrations of compounds; endogenous in cells; host or cells: RKO cells, stimulated with TNFα

[5] = target: T1, IRAK1; assay: IRAK1 inhibition in RKO cells treated with TNFα (Western blot); assay type: cell-based
Description: (§4) Cells were harvested and analyzed by Western blot. Blots were incubated with the following antibodies: Phospho-IRAK1 (Thr209), (A1074, AssayBiothechnology; 1/1,000), Phospho-IKKα/β (Ser176/180) (16A6, Cell Signaling; 1/1,000), IKKα (2682, cell signaling; 1/1,1000), IKK β (2370, cell signaling; 1/1,1000), Phospho-c-Jun (Ser 63) (9261, cell signaling; 1/1,1000), p53 (DO-1&1801 hybridoma mix; dilution of 1:20 of supernatants from each), CKIα (C-19; 1/1,000; Santa Cruz Biotechnology) and phospho-histoneH2AX (S139; 1/1,000; Millipore). Secondary antibodies were HRP-linked goat anti-mouse, goat anti-rabbit and rabbit anti-goat antibodies (all 1/10,000; Jackson). Inhibition of Phospho-IRAK1, Phospho-IKKα/β and Phospho-c-Jun indicate IRAK1 inhibition. p53 stabilization and phosphorylation of H2AX (γH2AX), a marker of DNA damage, indicative of CKIα kinase inhibition. CKIα protein levels serves as a loading control.
as §4, with “IRAK1 Inhibition with compounds of the invention. RKO cells were incubated for 16 hours at 37° C. with the indicated concentrations of compounds of the invention A51 (1 μM) and A14 (2 μM) (FIG. 10). At the indicated time points, RKO were treated with TNFα (100 units/ml). Cells” for “Cells”, “IKKβ” for “IKK β”, “Blots were developed using ECL (GE Healthcare). […] Also shown is” for “Inhibition of Phospho-IRAK1, Phospho-IKKα/β and Phospho-c-Jun indicate IRAK1 inhibition.”

[6] = test system: AML mice (MLL-AF9); assay: MLL-AF9 acute myeloid leukemia (AML) mouse model; assay type: in vivo
Description: Generation of a mouse model of acute myeloid leukemia (AML) (FIG. 6) and treatment with the CKIα inhibitor A14 (FIGS. 7, 8 and 9) or A51 (FIGS. 11 and 12). To generate the MLL-AF9 Acute myeloid leukemia (AML) model, bone marrow (BM) cells from 10 week old wild type mouse were extracted and enriched for cKit expressing cells (EasySep #18757) and incubated overnight in RPMI supplemented with 15% FCS L-Glutamine, Pen/Strep (Biological Industries, Israel) and stem cell factor (SCF), IL-3, IL-6 and TPO (Peprotech). The culture was infected with MSCV-MLL-AF9-IRES-GFP retrovirus construct containing supernatant medium for 4 hours, then growth medium was added and infected cells were incubated at 37° C. for additional 24 h. The culture was then injected I.V. into sub lethally irradiated (500 rad) mice. Upon detectable steady increase of GFP expressing cells in the mice peripheral blood (checked by FACS analysis) and rise in leukocyte numbers and immature cells (detected by Wright-Giemsa stained blood films), mice were sacrificed and their BM was transferred (1st BMT) to sublethally irradiated WT hosts. Upon emergence of AML disease mice were sacrificed and 50,000 BM cells were transplanted (2nd BMT) into WT host mice. GFP expressing cells were monitored in the peripheral blood and upon detecting >10% GFP^+ in PB (day 11 after BMT) mice were treated with A14 inhibitor (FIG. 7A). A14 was administered by oral gavage once a day at a dose of 20 mg/kg for 3 days followed by 10 mg/kg/day for 6 more days. The inhibitor was dissolved in 1% methyl cellulose with 0.1% Tween 80 and 0.2% Poly-ethylene glycol (Vehicle). Control mice were treated with the vehicle only. Mice were monitored daily for cachexia, lethargy, and ruff coats, and moribund mice were sacrificed. For a single dose experiment (FIG. 11A) A51 was administered by oral gavage at a single dose of 20 mg/kg and mice were sacrificed 16 hours following treatment.
Complete blood counts. Peripheral venous blood was obtained from the mouse facial vein using standard techniques and analyzed using the auto hematology analyzer BC-2800 (Mindray) per manufacturer's instructions.
Single-dose treatment effect of a CKI inhibitor in AML mice and PD-L1 expression. AML mice were prepared by inoculating MLL-AF9 oncogene-transduced bone marrow cells to C57/BL6 mice. MLL-AF9 fusion represents one of a poor prognosis human AML induced by chromosomal translocation. 30 days after leukemia inoculation, the recipient mice have high white blood cells (WBC) counts (×10 higher than a normal mouse), and harbor >95% leukemia blasts in the bone marrow and 50% of the peripheral WBC in these mice are AML blasts. These mice have splenomegaly and their bones are pale and fragile due to the acute leukemia (FIG. 12).

[7] = oral single dose 20 mg/Kg, 16 hrs

T1 sequence (P51617 whole entry): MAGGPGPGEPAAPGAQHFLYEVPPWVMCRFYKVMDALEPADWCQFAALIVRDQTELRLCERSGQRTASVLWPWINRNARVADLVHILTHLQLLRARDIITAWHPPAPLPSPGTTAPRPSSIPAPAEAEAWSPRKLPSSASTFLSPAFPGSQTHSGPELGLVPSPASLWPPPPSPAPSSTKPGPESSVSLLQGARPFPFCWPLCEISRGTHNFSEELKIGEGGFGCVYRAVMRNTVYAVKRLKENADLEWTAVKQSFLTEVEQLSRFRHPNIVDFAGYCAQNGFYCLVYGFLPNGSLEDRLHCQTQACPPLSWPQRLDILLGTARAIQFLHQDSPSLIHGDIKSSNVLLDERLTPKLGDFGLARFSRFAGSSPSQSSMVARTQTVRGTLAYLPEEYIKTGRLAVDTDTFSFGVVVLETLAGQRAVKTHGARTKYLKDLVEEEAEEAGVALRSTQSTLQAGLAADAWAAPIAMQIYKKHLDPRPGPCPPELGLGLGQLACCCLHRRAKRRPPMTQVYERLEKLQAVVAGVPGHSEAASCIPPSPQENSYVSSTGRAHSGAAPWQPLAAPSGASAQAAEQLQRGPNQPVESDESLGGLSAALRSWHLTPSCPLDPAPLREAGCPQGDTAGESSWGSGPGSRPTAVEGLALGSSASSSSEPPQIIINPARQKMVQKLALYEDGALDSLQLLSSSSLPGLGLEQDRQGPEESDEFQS

Row | SMILES | β-Catenin activity [1] | DDR & p53 activity [2] | other results
1 | Cn1ncc(-c2ccnc(NC3CCC4(CC3)NC(=O)NC4=O)n2)c1CC1CC1 (centres unmarked) [Compound A19-4, 8-((4-(5-(cyclopropylmethyl)-1-methyl-1H-pyrazol-4-yl)pyrimidin-2-yl)amino)-1,3-diazaspiro[4.5]decane-2,4-dione] | +++ (+++ indicates maximal β-catenin or p53 stabilization at >2 μM) | – | concentration at which β-catenin was stabilized ([1]; FIG. 1A): 2; p53 stabilization and γH2AX induction (in words) ([2]; FIG. 1A): neither stabilized p53, nor induced γH2AX
2 | Cn1ncc(-c2nc(NC3CCC(N)CC3)ncc2F)c1CC1CC1 [Compound A86, (1R,4R)—N^1-(4-(5-(cyclopropylmethyl)-1-methyl-1H-pyrazol-4-yl)-5-fluoropyrimidin-2-yl)cyclohexane-1,4-diamine] | +++ (+++ indicates maximal β-catenin or p53 stabilization at >2 μM) | +++++ (+++++ indicates maximal activation of p53 and DDR at >0.1 μM) | –
3 | N[C@H]1CC[C@H](Nc2nccc(-c3cnn(C4CCCOC4)c3CC3CC3)n2)CC1 (stereo partly drawn) [Compound A38, (1R, 4R)—N^1-(4-(5-(cyclopropylmethyl)-1-(tetrahydro-2H-pyran-3-yl)-1H-pyrazol-4-yl)pyrimidin-2-yl)cyclohexane-1,4-diamine] | + (+ indicates low, yet significant activation at a compound concentration of 6 μM) | + (+ indicates low, yet significant activation at a compound concentration of 6 μM) | –
4 | CC(C)n1ncc(-c2ccnc(N[C@H]3CC[C@H](N)CC3)n2)c1CC1CCC1 [Compound A53, (1R,4R)—N^1-(4-(5-(cyclobutylmethyl)-1-isopropyl-1H-pyrazol-4-yl)pyrimidin-2-yl)cyclohexane-1,4-diamine] | + (+ indicates low, yet significant activation at a compound concentration of 6 μM) | + (+ indicates low, yet significant activation at a compound concentration of 6 μM) | –
5 | Cn1ncc(-c2ccnc(NC3CCC(N)(CO)CC3)n2)c1CC1CC1 (centres unmarked) [Compound A19, (1-amino-4-((4-(5-(cyclopropylmethyl)-1-methyl-1H-pyrazol-4-yl)pyrimidin-2-yl)amino)cyclohexyl)methanol] | + (+ indicates low, yet significant activation at a compound concentration of 6 μM) | + (+ indicates low, yet significant activation at a compound concentration of 6 μM) | –
6 | O=C(Nc1nc2ccccc2n1CCN1CCOCC1)c1cccc([N+](=O)[O-])c1 [Amgen's IRAK1-4 inhibitor] | – | – | inhibition of IRAK1/4 in cell lines [3]: 70%
7 | Cn1ncc(-c2nc(NC3CCC(NCc4cn[nH]c4)CC3)ncc2F)c1CC1CC1 [Compound A85, (1R,4R)—N^1-((1H-pyrazol-4-yl)methyl)-N^4-(4-(5-(cyclopropylmethyl)-1-methyl-1H-pyrazol-4-yl)-5-fluoropyrimidin-2-yl)cyclohexane-1,4-diamine] | +++ (+++ indicates maximal β-catenin or p53 stabilization at >2 μM) | +++ (+++ indicates maximal β-catenin or p53 stabilization at >2 μM) | –
8 | Cn1ncc(-c2nc(N[C@H]3CC[C@H](N)CC3)ncc2Cl)c1CC1CC1 [Compound A51, (1R, 4R)—N^1-(5-chloro-4-(5-(cyclopropylmethyl)-1-methyl-1H-pyrazol-4-yl)pyrimidin-2-yl)cyclohexane-1,4-diamine] | +++ (+++ indicates maximal β-catenin or p53 stabilization at >2 μM) | ++++ (++++ indicates maximal activation of p53 and DDR at >0.5 μM) | Kd [4]: 2.9 nM; IRAK1 activation and activation of the IRAK1 target IKK (in words) ([5]; RKO cells, Western blot, A51 1 μM, A14 2 μM, 16 hours, TNFα 100 units/ml): inhibition of IRAK1 activation; inhibition at 1 µM ([5]; RKO, read-out: inhibition of phospho-(active) IRAK1): 100%; leukemic spleen size (in words) [6, 7]: shrinking of the leukemic spleen; reduction of proportion of leukemic blasts (GFP+ cells) in the blood [6, 7]: > 90%; reduction of proportion of leukemic blasts (GFP+ cells) in the bone marrow [6, 7]: 50%; total leukemia cells in the blood (in words) [6, 7]: massive reduction; bone colour (in words) ([6]; single dose 20 mg/Kg): Opaque bones turned to normal color
9 | Cn1ncc(-c2ccnc(N[C@H]3CC[C@H](N4CCOCC4)CC3)n2)c1CC1CC1 [Compound A48, 4-(5-(cyclopropylmethyl)-1-methyl-1H-pyrazol-4-yl)-N-((1r, 4r)-4-morpholinocyclohexyl)pyrimidin-2-amine] | + (+ indicates low, yet significant activation at a compound concentration of 6 μM) | + (+ indicates low, yet significant activation at a compound concentration of 6 μM) | –

— patent US12514859B2, “Pyrazole pyrimidine derivative and uses thereof” (Yissum Research Development Company of the Hebrew …, priority 2015, dated 2026)
